{"source": "paper PMC2680961", "about": "“Homologous desensitization of signalling by the alpha (α) isoform of the human thromboxane A2 receptor: A specific role for nitric oxide signalling” (Biochimica et Biophysica Acta, 2007)", "type_in_all_cases": "cell-based", "key": {"[1]": {"target": "T1, TPα^S331A (Homo sapiens, UniProt P21731, S331A)", "T1 construct": "expressed in transfected cells", "T1 sequence (P21731 1-343 S331A)": "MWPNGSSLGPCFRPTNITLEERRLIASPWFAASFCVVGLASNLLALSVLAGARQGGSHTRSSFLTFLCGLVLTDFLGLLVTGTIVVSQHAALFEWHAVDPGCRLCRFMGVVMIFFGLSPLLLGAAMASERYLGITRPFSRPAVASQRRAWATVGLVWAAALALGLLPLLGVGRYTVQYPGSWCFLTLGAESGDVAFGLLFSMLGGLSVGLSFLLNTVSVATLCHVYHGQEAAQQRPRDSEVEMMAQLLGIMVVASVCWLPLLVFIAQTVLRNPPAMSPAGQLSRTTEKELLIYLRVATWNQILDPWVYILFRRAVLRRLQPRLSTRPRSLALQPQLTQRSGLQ", "experiment": "Intracellular calcium mobilization, HEK.TPα^S331A cells", "conditions": "for Δ[Ca2+]i, U46619-induced: HEK.TPα^S331A", "description": "(§1) Measurement of intracellular calcium mobilization ([Ca^2+]i) in FURA2/AM preloaded HEK 293 cell lines (2 × 10^6 cells/dish), each transiently co-transfected with pADVA (10 μg), and pCMV:Gαq (25 μg), was carried out as previously described. To investigate the effect of GRK2/βARK1 on TP-mediated [Ca^2+]i mobilization, HEK.TPα or HEK.TPβ cells (2 × 10^6 cells/dish) were co-transfected with pADVA (10 μg), pCMV:Gαq (25 μg) along with pRK5:βARK1^495–689 (25 μg), encoding a dominant negative form of GRK2/βARK1[39]. Approximately 48 h post-transfection, cells were harvested by scraping, washed twice in ice-cold PBS and resuspended in HBSSHB (modified Ca^2+/Mg^2+-free Hank's buffered salt solution, containing 10 μM HEPES, pH 7.67, 0.1% bovine serum albumin (BSA)) buffer at 10^7 cells/ml and incubated in the dark with 5 μM FURA2/AM for 45 min at 37 °C. […] For each measurement of [Ca^2+]i mobilization, aliquots of cells were diluted to 0.825 × 10^6 cells/ml in HBSSHB, 1 mM CaCl2 and FURA2 fluorescence was recorded (2 ml aliquots of cells) at 37^ °C with gentle stirring with a Perkin Elmer-Cetus LS50-B spectrofluorometer at excitation wavelengths of 340 nm and 380 nm and emission wavelength of 510 nm, respectively.\n(§2) Cells were stimulated with the TP agonist U46619 (1 μM) and changes in [Ca^2+]i mobilization were monitored as a function of time. To assess agonist-mediated homologous desensitization, cells (0.825 × 10^6 cells/ml; 2 ml per assay) were stimulated with 1 μM U46619 (Primary stimulation) or, as a control, with the vehicle for 4 min; thereafter, cells were collected by centrifugation (900×g, 5 min); were washed twice in 2 ml HBSSHB, 1 mM CaCl2; and finally resuspended in 2 ml HBSSHB,1 mM CaCl2 and were left to recover over various time intervals (ranging from 0 to 60 min); thereafter, cells re-stimulated with 1 μM U46619 (Secondary stimulation) and changes in [Ca^2+]i mobilization were monitored as a function of time. […]"}, "[2]": {"target": "T2, TPα^S331,T337A (Homo sapiens, UniProt P21731, S331A/T337A)", "T2 construct": "expressed in transfected cells", "T2 sequence (P21731 1-343 S331A/T337A)": "T1 sequence (P21731 1-343 S331A) with T337A", "experiment": "Intracellular calcium mobilization, HEK.TPα^S331,T337A cells", "conditions": "for Δ[Ca2+]i, U46619-induced: HEK.TPα^S331,T337A", "description": "as §1, §2"}, "[3]": {"target": "T3, TPα^S331,340A (Homo sapiens, UniProt P21731, S331A/S340A)", "T3 construct": "expressed in transfected cells", "T3 sequence (P21731 whole entry S331A/S340A)": "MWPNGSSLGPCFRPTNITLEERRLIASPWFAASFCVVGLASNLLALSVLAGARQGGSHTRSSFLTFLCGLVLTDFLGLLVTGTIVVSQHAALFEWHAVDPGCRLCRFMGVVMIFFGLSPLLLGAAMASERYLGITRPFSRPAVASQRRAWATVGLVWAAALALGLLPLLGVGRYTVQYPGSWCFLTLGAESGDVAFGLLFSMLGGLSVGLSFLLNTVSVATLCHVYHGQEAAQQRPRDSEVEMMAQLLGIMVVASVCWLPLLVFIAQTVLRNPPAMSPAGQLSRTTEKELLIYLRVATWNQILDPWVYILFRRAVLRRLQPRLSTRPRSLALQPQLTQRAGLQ", "experiment": "Intracellular calcium mobilization, HEK.TPα^S331,340A cells", "description": "as §1, with “GRK2/βARK1[39].” for “GRK2/βARK1[39]. Approximately 48 h post-transfection, cells were harvested by scraping, washed twice in ice-cold PBS and resuspended in HBSSHB (modified Ca^2+/Mg^2+-free Hank's buffered salt solution, containing 10 μM HEPES, pH 7.67, 0.1% bovine serum albumin (BSA)) buffer at 10^7 cells/ml and incubated in the dark with 5 μM FURA2/AM for 45 min at 37 °C.”\n(§3) Cells were stimulated with the TP agonist U46619 (1 μM) and changes in [Ca^2+]i mobilization were monitored as a function of time. […]\n(§4) The vehicle had no effect on U46619-mediated [Ca^2+]i mobilization. Calibration of the signal was performed in each sample by adding 0.2% Triton X-100 to obtain the maximal fluorescence ratio (Rmax) and then 1 mM EGTA to obtain the minimal fluorescence ratio (Rmin). […]"}, "[4]": {"target": "T4, TPα^S340A (Homo sapiens, UniProt P21731, S340A)", "T4 construct": "expressed in transfected cells", "T4 sequence (P21731 1-343 S340A)": "T1 sequence (P21731 1-343 S331A) with A331S, S340A", "experiment": "Intracellular calcium mobilization, HEK.TPα^S340A cells", "description": "as §1, with “GRK2/βARK1[39].” for “GRK2/βARK1[39]. Approximately 48 h post-transfection, cells were harvested by scraping, washed twice in ice-cold PBS and resuspended in HBSSHB (modified Ca^2+/Mg^2+-free Hank's buffered salt solution, containing 10 μM HEPES, pH 7.67, 0.1% bovine serum albumin (BSA)) buffer at 10^7 cells/ml and incubated in the dark with 5 μM FURA2/AM for 45 min at 37 °C.”\nas §3, §4"}, "[5]": {"conditions": "secondary 1 μM U46619 at 15 min"}}, "note": "Numbering of substitutions follows the chain as printed."}
{"smiles": "CCCCC[C@H](O)/C=C/[C@@H]1[C@@H](C/C=C\\CCCC(=O)O)[C@H]2CO[C@@H]1C2", "note": "[U46619]", "values": [{"measurement": "Δ[Ca2+]i, U46619-induced", "setting": "[1]; primary 1 μM U46619 4 min", "value": "207 ± 9.1", "unit": "nM"}, {"measurement": "Δ[Ca2+]i, U46619-induced", "setting": "[1]; [5]", "value": "80 ± 6.8", "unit": "nM"}, {"measurement": "secondary U46619 [Ca2+]i response relative to primary response", "setting": "[1]; TPα^S331A", "value": 39, "unit": "%"}, {"measurement": "Δ[Ca2+]i, U46619-induced", "setting": "[2]; primary 1 μM U46619 4 min", "value": "181 ± 6.5", "unit": "nM"}, {"measurement": "Δ[Ca2+]i, U46619-induced", "setting": "[2]; [5]", "value": "60 ± 7.1", "unit": "nM"}, {"measurement": "secondary U46619 [Ca2+]i response relative to primary response", "setting": "[2]; TPα^S331,T337A", "value": 33, "unit": "%"}, {"measurement": "Δ[Ca2+]i, U46619-induced", "setting": "[3]; primary 1 μM U46619 4 min", "value": "160 ± 7.2", "unit": "nM"}, {"measurement": "Δ[Ca2+]i, U46619-induced", "setting": "[3]; [5]", "value": "60 ± 10", "unit": "nM"}, {"measurement": "Δ[Ca2+]i, U46619-induced", "setting": "[4]; primary 1 μM U46619 4 min", "value": "180 ± 6.1", "unit": "nM"}, {"measurement": "Δ[Ca2+]i, U46619-induced", "setting": "[4]; [5]", "value": 0, "unit": "nM"}]}
